# What was measured:
# Mycobacterium leprae = assay: Inhibitory activity against Mycobacterium leprae in the macrophage model (3H thymidine uptake); assay type: cell-based, M. leprae (in human monocyte derived macrophages)
# Text: The effect of CQQ on Mycobacterium leprae, the causative agent for leprosy, was studied using monocyte derived macrophages obtained from human volunteers.
# Blood from a healthy volunteer was drawn and monocytes were removed and cultured to the macrophage stage. This required about 7 days. The macrophages were then exposed to M. leprae bacilli obtained from biopsy specimens of leprosy patients. One sample was exposed to CQQ, while other samples were exposed to DDS (diaminodiphenyl sulphone), the standard antileprosy drug, or rifampin, at various concentrations. Macrophages were exposed to radiolabelled tritium (^3 H) labeled thymidine, and its uptake was measured using a liquid scintillation counter. A control model of M. leprae exposed macrophages, which was not treated was used as well. The uptake of thymidine is a measure of antimycobacterial activity.
# M. intracellulare = assay: In vitro activity against serovars of M. intracellulare, radiometric (Bactec) method; assay type: cell-based; conditions: comparison with CQQ; no data shown
# Method: A study of the effect of CQQ on different serovars of M. intracellulare in vitro was performed using the radiometric (Bactec) method. Maximum growth index (GI) of 999 was determined (for control models) in terms of the number of days necessary for the culture to reach this stage. GI is measured using the special instrument which reads the amount of ^14 C labelled CO2 liberated from the strains using the ^14 C labelled substrates.
SMILES,"Counts per minute (3H thymidine uptake) (Mycobacterium leprae; Sample I, 10 NG/ML)","Counts per minute (3H thymidine uptake) (Mycobacterium leprae; Sample II, DDS 10 NG/ML)","Counts per minute (3H thymidine uptake) (Mycobacterium leprae; Sample III, DDS 10 NG/ML)",Effectiveness on M. intracellulare strains (M. intracellulare),"Counts per minute (3H thymidine uptake) (Mycobacterium leprae; Sample I, 3 NG/ML)","Counts per minute (3H thymidine uptake) (Mycobacterium leprae; Sample II, 3 NG/ML)","Counts per minute (3H thymidine uptake) (Mycobacterium leprae; Sample III, 3 NG/ML)"
"Nc1ccc(S(=O)(=O)c2ccc(N)cc2)cc1 [DDS, diaminodiphenyl sulphone, reference compound]",84 COUNTS PER MINUTE,78 COUNTS PER MINUTE,84 COUNTS PER MINUTE,,,,
"CO[C@H]1/C=C/O[C@@]2(C)Oc3c(C)c(O)c4c(O)c(c(/C=N/N5CCN(C)CC5)c(O)c4c3C2=O)NC(=O)/C(C)=C\C=C\[C@H](C)[C@H](O)[C@@H](C)[C@@H](O)[C@@H](C)[C@H](OC(C)=O)[C@@H]1C [rifampin, reference compound]",,,,only effective on a few strains,82 COUNTS PER MINUTE,80 COUNTS PER MINUTE,82 COUNTS PER MINUTE

# From patent publication US4963565A, “In vivo treatment of mycobacterial infections with 6-cyclo octylamino-5,8-quinoline quinone” (priority 1986, dated 1990)
